Measured values published in US9029389B2 (Institut Pasteur Korea, priority 2011, dated 2015).

Columns and labels:
[1] = test system: production of LTB4 in human PBMC (peripheral blood mononuclear cells); assay: Production of LTB4 in PBMC (LTB4 secretion assay); type: cell-based; details: 12 point dose response in duplicate
Procedure: Frozen human PBMC (peripheral blood mononuclear cells, AllCells, Cat#[…]) was diluted 50 times with fresh culture media (RPMI 1640 supplemented with 10% FBS, 2 mM L-alanyl-L-glutamine). Cells were harvested by centrifugation and resuspended in fresh culture media to a concentration of 5×10^6 cells per milliliter. 140 ul of cell suspension was then liquated to each well (96-well plate). After incubation at 37° C. for 1 hr under 5% CO2, 10 ul of serially diluted compounds (in 100% DMSO) and 10 ul of arachidonic acid to a final concentration of 30 uM were added and further incubated for 1 hr at 37° C. for 1 hr under 5% CO2. Then, inducers, such as A23187 (Ionophor), sodium arsenite, sodium chloride and/or Anti-DNP IgE, were added in a volume of 40 ul and cells were incubated at 37° C. for […]. Culture supernatant was harvested by centrifugation and LTB4 levels were quantified using LTB4 EIA kit (Cayman, Cat#520111). Six of the 378 compounds tested against the 5-LO enzyme in vitro were also selected to be tested for their activity in a human cellular assay. Compounds were tested in a 12 point dose response in duplicate.

Human 5-lipoxygenase = target: T1, Human 5-lipoxygenase (Homo sapiens, UniProt P09917); assay: Activity of compounds against 5-LO enzyme (LTB4 measurement and/or fluorescence method); type: biochemical; details: for inhibition at 10 µM: 5-LO, single concentration of 10 uM in duplicate; for IC50: 6 or 11 point dose response in duplicate
T1 construct: purchased Cayman 60402; host or cells: insect cells
T1 sequence (P09917 1-674): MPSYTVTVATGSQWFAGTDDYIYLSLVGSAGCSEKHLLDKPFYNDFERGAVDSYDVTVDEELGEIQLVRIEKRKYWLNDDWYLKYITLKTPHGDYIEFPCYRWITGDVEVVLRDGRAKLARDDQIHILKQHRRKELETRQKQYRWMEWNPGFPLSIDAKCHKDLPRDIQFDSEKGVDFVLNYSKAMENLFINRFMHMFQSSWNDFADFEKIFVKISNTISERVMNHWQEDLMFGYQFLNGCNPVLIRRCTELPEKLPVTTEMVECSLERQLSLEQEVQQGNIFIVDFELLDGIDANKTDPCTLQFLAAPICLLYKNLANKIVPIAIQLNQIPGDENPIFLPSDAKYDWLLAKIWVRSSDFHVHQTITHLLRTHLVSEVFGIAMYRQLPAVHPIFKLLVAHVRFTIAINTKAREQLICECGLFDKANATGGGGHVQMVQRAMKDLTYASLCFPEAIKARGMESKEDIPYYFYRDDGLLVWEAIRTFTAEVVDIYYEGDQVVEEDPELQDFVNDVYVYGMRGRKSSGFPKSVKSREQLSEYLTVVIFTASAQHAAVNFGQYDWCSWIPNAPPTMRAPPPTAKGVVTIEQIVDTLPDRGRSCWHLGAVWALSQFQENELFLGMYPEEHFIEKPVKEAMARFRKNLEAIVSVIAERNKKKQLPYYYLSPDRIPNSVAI
In short: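 Two read-outs: LTB4 measured by EIA and/or LC/MS/MS with LTB4-d4 standard after 15 min RT compound preincubation with insect-cell 5-LO and a 5 min 37 °C reaction on 3 uM arachidonic acid (0.1 mM ATP, pH 7.4). The room-temperature fluorescence format used 20 uM H2DCFDA, 100 uM ATP, 3 uM arachidonic acid, 5 min; IC50 from 6/11-point curves.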

M. tuberculosis H37Rv = assay: Acute TB mouse model of infection, bacterial load in lungs; type: in vivo, Mycobacterium tuberculosis; details: for Log10CFU: 4 weeks of treatment
[2] = test system: inflammatory lesions in the lungs; assay: Acute TB mouse model of infection, histopathological analysis of lung tissue; type: in vivo, BalbC mice; details: TB-infected mice, Hematoxylin and Eosin staining, compared with even INH treatment (FIG. 1)
Procedure: The effect of compound 127 on TB-infected mice was compared to that of the reference compound Isoniazid (INH). 8-week old female BalbC mice were infected with 6×10^5 M. tuberculosis H37Rv via intranasal instillation. Mice were sacrificed at day 1 to control the number of CFU in the lungs. In the acute model of infection, mice were treated for 4 weeks, starting at day 1. Compounds were freshly dissolved in a 0.5% methylcellulose solution and administered by oral gavage 5 times/week. Bacterial load was assessed in lungs after homogenizing the organs in 1×PBS. Serial dilutions of organ homogenates were spread on Middlebrook 7H11 plates and CFU were determined after 3 weeks incubation at 37° C. under 5% CO2. Histopathological analysis of lung tissue was performed by Hematoxylin and Eosin staining.

| SMILES | inhibition at 10 µM (Human 5-lipoxygenase) | IC50 (Human 5-lipoxygenase) | melting point | further results |
| --- | --- | --- | --- | --- |
| CCc1nc2ccc(Cl)cn2c1C(=O)N(C)Cc1ccc(N2CCN(c3ccc(F)cc3)CC2)cc1 [compound 314, 6-Chloro-2-ethyl-N-(4-(4-(4-fluorophenyl)piperazin-1-yl)benzyl)-N-methylimidazo[1,2-a]pyridine-3-carboxamide] | > 69% | 1000 to 20000 nM | 148 to 149 °C | EC50 [1]: < 1000 nM |
| CCc1nc2cc([N+](=O)[O-])ccn2c1C(=O)NCc1ccc(N2CCC(Oc3ccc(OC(F)(F)F)cc3)CC2)cc1 [compound 312, 2-Ethyl-7-nitro-N-(4-(4-(4-(trifluoromethoxy)phenoxy)piperidin-1-yl)benzyl)imidazo[1,2-a]pyridine-3-carboxamide] | > 69% | < 1000 nM | – | EC50 [1]: < 1000 nM |
| CCc1nc2ccc(Cl)cn2c1CNc1ccc(N2CCN(c3ccc(F)cc3)CC2)cc1 [compound 311, N-((6-Chloro-2-ethylimidazo[1,2-a]pyridin-3-yl)methyl)-4-(4-(4-fluorophenyl)piperazin-1-yl)aniline] | > 69% | < 1000 nM | 191 to 192 °C | EC50 [1]: 1000 to 20000 nM |
| CCc1nc2ccc(Cl)cn2c1C(=O)N1CCC(OCc2ccc(OC(F)(F)F)cc2)CC1 [compound 313, (6-Chloro-2-ethylimidazo[1,2-a]pyridin-3-yl)(4-(4-(trifluoromethoxy)benzyloxy)piperidin-1-yl)methanone] | > 69% | 1000 to 20000 nM | – | EC50 [1]: < 1000 nM |
| CCc1nc2cc(Cl)ccn2c1C(=O)NCc1ccc2oc(-c3ccc(OC(F)(F)F)cc3)nc2c1 [compound 187, 7-Chloro-2-ethyl-N-((2-(4-(trifluoromethoxy)phenyl)benzo[d]oxazol-5-yl)methyl)imidazo[1,2-a]pyridine-3-carboxamide] | < 40% | – | – | EC50 [1]: 1000 to 20000 nM |
| CCc1nc2ccc(Cl)cn2c1C(=O)NCc1cccc(N2CCC(Oc3ccc(OC(F)(F)F)cc3)CC2)c1 [compound 360, 6-chloro-2-ethyl-N-(3-(4-(4-(trifluoromethoxy)phenoxy)piperidin-1-yl)benzyl)imidazo[1,2-a]pyridine-3-carboxamide] | 40 to 69% | – | 126.3 to 127.2 °C | – |
| CCc1nc2cc(Cl)ccn2c1C(=O)NCc1ccc(N2C=CC(=O)CC2)cc1 [compound 201, 7-Chloro-2-ethyl-N-(4-(4-oxo-3,4-dihydropyridin-1(2H)-yl)benzyl)imidazo[1,2-a]pyridine-3-carboxamide] | < 40% | – | 201.3 to 202.8 °C | – |
| CCc1nc2cc(Cl)ccn2c1C(=O)NCc1ccc(N2CCN(c3ccc(F)cc3)CC2)cc1 [compound 127, 7-Chloro-2-ethyl-N-(4-(4-(4-fluorophenyl)piperazin-1-yl)benzyl)imidazo[1,2-a]pyridine-3-carboxamide] | > 69% | > 20000 nM | 212 to 213 °C | EC50 [1]: < 1000 nM; Log10CFU (M. tuberculosis H37Rv; 50 mg/kg oral gavage 5 times/week): 6.47 Log10CFU; reduction of CFU compared to untreated mice (M. tuberculosis H37Rv; 50 mg/kg, after 4 weeks of treatment): ~1 log CFU; number and size of inflammatory lesions in the lungs [2]: significant reduction in the number and size of inflammatory lesions in the lungs |
| CCc1nc2c[n+]([O-])ccn2c1C(=O)NCc1ccc(-c2ccc(Cl)cc2)cc1 [compound 310, 3-(((4′-Chloro-[1,1′-biphenyl]-4-yl)methyl)carbamoyl)-2-ethylimidazo[1,2-a]pyrazine 7-oxide] | 40 to 69% | 1000 to 20000 nM | 238 °C | – |
| CCc1nc2ccc(Cl)cn2c1C(=O)NCC1CCN(Cc2ccc(F)cc2)CC1 [compound 139, 6-Chloro-2-ethyl-N-((1-(4-fluorobenzyl)piperidin-4-yl)methyl)imidazo[1,2-a]pyridine-3-carboxamide] | < 40% | – | 176 to 177 °C | – |
| CCc1nc2cc(-c3ccncc3)ccn2c1C(=O)NCc1ccc(N2CCOCC2)cc1 [compound 255, 2-Ethyl-N-(4-morpholinobenzyl)-7-(pyridin-4-yl)imidazo[1,2-a]pyridine-3-carboxamide] | < 40% | – | 210.1 °C | – |
| NNC(=O)c1ccncc1 [INH, Isoniazid, reference compound] | – | – | – | Log10CFU (M. tuberculosis H37Rv; 25 mg/kg oral gavage 5 times/week): 5.0 Log10CFU |
| CCc1nc2cc(Cl)ccn2c1C(=O)NCc1ccc(Oc2ccc(Cl)cc2)cc1 [compound 161, 7-Chloro-N-(4-(4-chlorophenoxy)benzyl)-2-ethylimidazo[1,2-a]pyridine-3-carboxamide] | > 69% | 1000 to 20000 nM | 167.1 to 167.9 °C | – |
| CCc1nc2ccccn2c1C(=O)NCc1ccc(OCc2ccc(OC(F)(F)F)cc2)cc1 [compound 207, 2-Ethyl-N-(4-(4-(trifluoromethoxy)benzyloxy)benzyl)imidazo[1,2-a]pyridine-3-carboxamide] | > 69% | 1000 to 20000 nM | 138.7 °C | – |
| CCc1nc2cc(Cl)ccn2c1C(=O)NCc1ccc(N2CCCCC2C)cc1 (stereo not drawn) [compound 252, 7-chloro-2-ethyl-N-(4-(2-methylpiperidin-1-yl)benzyl)imidazo[1,2-a]pyridine-3-carboxamide] | < 40% | – | 117.9 °C | – |
| CCc1nc2ccc(Cl)cn2c1C(=O)NCc1ccc(N2CCN(c3ccc(OC(F)(F)F)cc3)CC2)cc1 [compound 158, 6-Chloro-2-ethyl-N-(4-(4-(4-(trifluoromethoxy)phenyl)piperazin-1-yl)benzyl)imidazo[1,2-a]pyridine-3-carboxamide] | 40 to 69% | – | 206.5 to 207 °C | – |
| CCc1nc2ccc(Cl)cn2c1-c1nc(Cc2ccc(Oc3ccc(F)cc3)cc2)no1 [compound 289, 5-(6-Chloro-2-ethylimidazo[1,2-a]pyridin-3-yl)-3-(4-(4-fluorophenoxy)benzyl)-1,2,4-oxadiazole] | < 40% | – | 129.9 °C | – |
| CCc1nc2ccc(Cl)cn2c1C(=O)NCc1ccc2oc(C3CCCCC3)nc2c1 [compound 298, 6-Chloro-N-((2-cyclohexylbenzo[d]oxazol-5-yl)methyl)-2-ethylimidazo[1,2-a]pyridine-3-carboxamide] | > 69% | 1000 to 20000 nM | 169.7 °C | – |
| CCc1nc2ccc(Cl)cn2c1-c1nc(Cc2ccc(OC(F)(F)F)cc2)no1 [compound 165, 5-(6-Chloro-2-ethylimidazo[1,2-a]pyridin-3-yl)-3-(4-(trifluoromethoxy)benzyl)-1,2,4-oxadiazole] | < 40% | – | 146.4 to 146.9 °C | – |
| CCc1nc2cc(Cl)ccn2c1C(=O)NCc1ccc(N2CCC(COC)CC2)cc1 [compound 248, 7-Chloro-2-ethyl-N-(4-(4-(methoxymethyl)piperidin-1-yl)benzyl)imidazo[1,2-a]pyridine-3-carboxamide] | < 40% | – | 172.5 °C | – |
| CCc1nc2cc(Br)ccn2c1C(=O)NCc1ccc(N2CCN(c3ccc(F)cc3)CC2)cc1 [compound 304, 7-Bromo-2-ethyl-N-(4-(4-(4-fluorophenyl)piperazin-1-yl)benzyl)imidazo[1,2-a]pyridine-3-carboxamide] | > 69% | 1000 to 20000 nM | 214.6 °C | – |
